Data as given in patent US10174056B2, “Substituted pyrrolo[2,3-d]pyrimidines as janus kinase inhibitors” (WUXI FORTUNE PHARMACEUTICAL CO., LTD, priority 2015, dated 2019).
Blank lines part the entries; values can stand above or below the molecule they belong to.

Tests used:
[1] = Pharmacokinetic (PK) test in mice; format: in vivo, DBA/1 mice; conditions: for bioavailability / AUC(0-inf) / Cmax / half-life: mouse, plasma, po, DBA/1 mice, mean; for bioavailability: gavage vs tail vein injection; for AUC(0-inf) / Cmax / half-life: tail vein injection and gavage
Experimental: Pharmacokinetic (PK) Test
The clear solution obtained by dissolving the test compound was respectively administrated by tail vein injection and gavage into the mice DBA/1 mice (overnight fasting, 7 to 8 weeks old). After administration of the test compound, the mice in the vein injection group at 0.083, 0.25, 0.5, 1, 2, 4, 8 and 24 hours, and gavage group at 0.25, 0.5, 1, 2, 4, 8 and 24 hours, blood is collected from the mandibular vein and centrifuged to obtain plasma. The plasma concentration was determined by LC-MS/MS. The pharmacokinetic parameters were calculated by non-compartmental model linear logarithmic trapezoid method with using WinNonlin™ Version 6.3 pharmacokinetic software.

[2] = test system: rat adjuvant arthritis model; experiment: Rat adjuvant-induced arthritis model efficacy test; format: in vivo; conditions: Lewis rats, oral; for AUC (%): two weeks of administration from day 13; for arthritis inhibitory activity (in words): swollen foot volume and score
Experimental: Rat Adjuvant-Induced Arthritis Model Efficacy Test
The effect of the compounds of the present invention on the treatment of arthritis was verified by rat adjuvant arthritis models.
Female, Lewis rats with body weight 160-180 g were anesthetized with isoflurane and was injected with 0.1 ml of mycobacterium tuberculosis suspension subcutaneously in the left posterior foot. After modeling for 13 days, the corresponding test compound was administrated, such as that the rats were respectively administrated with 1 mpk, 3 mpk, 10 mpk of the test compound WX614, 10 mpk of the test compound WX552, and 10 mpk of the test compound WX591 dissolved in a mixed solvent of DMSO/PEG400/H2O, and orally administered to female Lewis rats (10 rats in each dose group). Two weeks after continuous administration, the state of the rats was observed and the volume of the swollen foot was recorded and scored.

[3] = molecular target: T1, JAK2 (Homo sapiens, UniProt O60674); experiment: Test for in vitro activity of JAK2 kinase (LANCE Ultra ULight peptide); format: biochemical; conditions: recombinant human JAK2, 12 uM ATP, 60 min
T1 construct: purchased Life technology
Experimental: (§1) Test for in vitro activity of Jak1, Jak2, and Jak3 Kinase
(§2) Recombinant human […] of JAK1, JAK2 and JAK3 were purchased from Life technology. LANCE Ultra ULight™-JAK-1 (Tyr1023) peptide and LANCE Eu-W1024 Anti-phosphotyrosine (PT66) were purchased from PerkinElmer. Multimode ELISA, Envison(PerkinElmer) reader was used.
(§3) The test compound was diluted according to gradient of three times concentration with a final concentration of from 10 uM to 0.17 nM at 11 concentrations totally, each concentration with two complex holes, and the content of DMSO in the detection was 1%.
(§4) 0.02 nM of JAK2 Protein kinase, 50 nM of LANCE Ultra ULight™-JAK-1(Tyr1023) peptide, 12 uM of ATP, 50 mM of HEPES (pH 7.5), 10 mM of MgCl2, 1 mM of EGTA, 2 mM of DTT, 0.01% BRIJ-35. Checker board is White Proxiplate 384-Plus plate (PerkinElmer). The reaction was carried out at room temperature for 60 min and the reaction system was 10 ul.
(§5) 10 ul detection reagent was added to reaction plate, wherein the final concentration of LANCE Eu-W1024 Anti-phosphotyrosine (PT66) was 2 nM, the final concentration of EDTA was […], incubated at room temperature for 60 min, with Envison reader.
(§6) The reading was converted to inhibition ratio (%) by the following formula: the inhibition ratio (%)=([…])/(Max−Min)×100%.

[4] = molecular target: T2, JAK1 (Homo sapiens, UniProt P23458); experiment: Test for in vitro activity of JAK1 kinase (LANCE Ultra ULight peptide); format: biochemical; conditions: recombinant human JAK1, 38 uM ATP, 90 min
T2 construct: purchased Life technology
Experimental: as §1, §2, §3
as §4, with “2” for “0.02”, “JAK1” for “JAK2”, “38” for “12”, “90” for “60”
as §5, §6

[5] = test system: mouse collagen-induced arthritis model; experiment: Mouse collagen-induced arthritis model efficacy test; format: in vivo, DBA/1 male mice; conditions: CIA mice, oral, 2 weeks
Experimental: Mouse Collagen-Induced Arthritis Model Efficacy Test
The effect of the compounds of the present invention on the treatment of arthritis was verified by the mouse collagen-induced arthritis model.
The DBA/l male mice were selected and injected subcutaneously with the emulsions of collagen and Freund's complete adjuvant at base of tail on day 0 and day 21, and on day 29 the mice was divided into groups. The compound WX6144 (3 mpk, 10 mpk, 30 mpk) was dissolved in DMSO/PEG400/H2O [5/20/75 (v/v/v)] and administered orally to CIA mice (Shanghai SLAC Laboratory Animal Co., Ltd, 10 mice in each dose group), and the mice were continuously administrated for 2 weeks, the weight of mice were recorded and the arthritis of mice was clinically scored.

T2 sequence (P23458 whole entry): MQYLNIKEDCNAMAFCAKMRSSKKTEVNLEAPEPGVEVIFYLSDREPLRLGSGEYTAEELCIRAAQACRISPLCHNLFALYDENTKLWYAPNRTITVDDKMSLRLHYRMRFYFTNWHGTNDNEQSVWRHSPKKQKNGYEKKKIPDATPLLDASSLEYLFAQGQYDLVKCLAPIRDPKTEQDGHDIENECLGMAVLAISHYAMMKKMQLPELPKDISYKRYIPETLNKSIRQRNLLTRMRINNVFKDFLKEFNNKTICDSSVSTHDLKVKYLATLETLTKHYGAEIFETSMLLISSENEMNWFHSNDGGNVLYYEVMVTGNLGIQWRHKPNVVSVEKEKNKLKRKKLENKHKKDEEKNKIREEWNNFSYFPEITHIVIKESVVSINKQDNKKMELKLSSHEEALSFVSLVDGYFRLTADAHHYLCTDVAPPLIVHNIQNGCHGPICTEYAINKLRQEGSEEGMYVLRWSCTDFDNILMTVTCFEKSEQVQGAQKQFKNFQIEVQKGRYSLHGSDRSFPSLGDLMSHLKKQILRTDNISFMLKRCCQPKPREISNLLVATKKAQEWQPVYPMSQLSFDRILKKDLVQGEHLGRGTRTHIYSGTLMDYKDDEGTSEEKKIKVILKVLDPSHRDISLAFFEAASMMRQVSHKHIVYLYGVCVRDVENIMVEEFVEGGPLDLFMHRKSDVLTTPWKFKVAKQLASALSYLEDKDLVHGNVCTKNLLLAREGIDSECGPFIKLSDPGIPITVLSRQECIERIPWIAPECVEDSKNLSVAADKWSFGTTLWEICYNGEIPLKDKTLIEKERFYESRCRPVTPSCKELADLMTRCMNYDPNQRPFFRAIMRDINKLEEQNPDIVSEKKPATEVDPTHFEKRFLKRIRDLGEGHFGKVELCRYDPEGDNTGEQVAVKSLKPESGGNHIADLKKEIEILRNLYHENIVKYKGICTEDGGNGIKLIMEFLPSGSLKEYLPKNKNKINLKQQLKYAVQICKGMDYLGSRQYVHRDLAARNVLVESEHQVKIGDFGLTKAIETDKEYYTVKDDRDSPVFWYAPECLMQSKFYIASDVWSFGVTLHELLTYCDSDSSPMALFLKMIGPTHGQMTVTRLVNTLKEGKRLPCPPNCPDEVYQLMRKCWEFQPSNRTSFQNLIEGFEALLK
T1 sequence (O60674 whole entry): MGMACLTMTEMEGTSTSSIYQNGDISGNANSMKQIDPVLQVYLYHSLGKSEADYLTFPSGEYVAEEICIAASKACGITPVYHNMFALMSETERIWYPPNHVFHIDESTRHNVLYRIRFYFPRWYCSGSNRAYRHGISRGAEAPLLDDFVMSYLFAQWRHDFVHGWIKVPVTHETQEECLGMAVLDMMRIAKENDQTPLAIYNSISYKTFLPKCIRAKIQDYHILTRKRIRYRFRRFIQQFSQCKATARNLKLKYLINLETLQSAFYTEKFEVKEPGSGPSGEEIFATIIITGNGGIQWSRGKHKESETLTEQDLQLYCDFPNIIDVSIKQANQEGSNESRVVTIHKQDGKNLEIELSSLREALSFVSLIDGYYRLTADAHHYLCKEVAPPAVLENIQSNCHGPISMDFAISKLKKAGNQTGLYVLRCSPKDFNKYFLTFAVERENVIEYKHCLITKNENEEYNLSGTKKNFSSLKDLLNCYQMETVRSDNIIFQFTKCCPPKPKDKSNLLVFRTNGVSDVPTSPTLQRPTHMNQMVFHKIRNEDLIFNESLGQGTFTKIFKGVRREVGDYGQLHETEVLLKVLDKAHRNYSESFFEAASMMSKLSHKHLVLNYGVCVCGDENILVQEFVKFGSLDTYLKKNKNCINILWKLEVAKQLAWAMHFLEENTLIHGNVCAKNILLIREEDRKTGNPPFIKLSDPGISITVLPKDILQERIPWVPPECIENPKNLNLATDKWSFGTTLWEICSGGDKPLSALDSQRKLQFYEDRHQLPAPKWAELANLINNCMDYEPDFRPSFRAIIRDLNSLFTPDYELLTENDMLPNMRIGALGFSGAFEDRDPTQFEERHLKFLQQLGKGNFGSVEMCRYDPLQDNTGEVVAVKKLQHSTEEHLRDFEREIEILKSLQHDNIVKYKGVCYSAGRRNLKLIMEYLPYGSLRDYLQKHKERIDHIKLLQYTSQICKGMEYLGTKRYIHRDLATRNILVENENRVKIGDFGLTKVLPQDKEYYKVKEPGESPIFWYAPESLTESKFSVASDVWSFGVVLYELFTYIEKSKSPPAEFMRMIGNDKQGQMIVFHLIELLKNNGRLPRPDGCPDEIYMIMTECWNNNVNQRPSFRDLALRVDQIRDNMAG

Compound: CN(c1ncnc2[nH]ccc12)C1CCn2cc(C(=O)NCC(F)(F)F)nc2C1 (centres unmarked) [WX579]
IC50 [3]: > 1000 nM | IC50 [4]: 100 to 1000 nM

Compound: CN(c1ncnc2[nH]ccc12)C1CCn2cc(C(=O)NCC(F)F)nc2C1 (centres unmarked) [WX580]
IC50 [3]: > 1000 nM | IC50 [4]: 100 to 1000 nM

Compound: CN(c1ncnc2[nH]ccc12)C1CCn2cc(C(=O)NCC#N)nc2C1 (centres unmarked) [WX581]
IC50 [3]: > 1000 nM | IC50 [4]: 100 to 1000 nM

Compound: CN(c1ncnc2[nH]ccc12)C1CCn2cc(C(=O)NCCS(C)(=O)=O)nc2C1 (centres unmarked) [WX592]
IC50 [3]: > 1000 nM | IC50 [4]: > 1000 nM

Compound: CN(c1ncnc2[nH]ccc12)C1CCn2cc(C(=O)NC3CC(F)(F)C3)nc2C1 (centres unmarked) [WX593, N-(3,3-difluorocyclobutyl)-7-[methyl(7H-pyrrolo[2,3-d]pyrimidine-4-yl]amino]-5,6,7,8-tetrahydroimidazo [1,2-a]pyridine-2-carboxamide]
IC50 [3]: > 1000 nM | IC50 [4]: > 1000 nM

Compound: CNC(=O)c1cn2c(n1)CC(N(C)c1ncnc3[nH]ccc13)CC2 (centres unmarked) [WX604]
IC50 [3]: > 1000 nM | IC50 [4]: 100 to 1000 nM

Compound: CNCc1cn2c(n1)CC(N(C)c1ncnc3[nH]ccc13)CC2 (centres unmarked) [WX605, N-methyl-N-[2-(methylaminomethyl)-5,6,7,8-tetrahydroimidazo[1,2-a]pyridine-7-yl]-7H-7H-pyrrolo[2,3-d]pyrimidine-4-amine]
IC50 [3]: > 1000 nM | IC50 [4]: > 1000 nM

Compound: CN(c1ncnc2[nH]ccc12)C1CCn2cc(CNS(C)(=O)=O)nc2C1 (centres unmarked) [WX606, N-((7-(methyl-(7H-pyrrolo[2,3-d]pyrimidine-4-yl)amine)-5,6,7,8-tetrahydroimidazo[1,2-a]pyridine-2-yl)methyl)methanesulfonamide]
IC50 [3]: > 1000 nM | IC50 [4]: 100 to 1000 nM

Second part, led by results:

bioavailability [1]: 74.4% | AUC(0-inf) [1]: 11.4 µM·h | Cmax [1]: 3.72 µM | half-life [1]: 1.18 h | IC50 [3]: 100 to 1000 nM | IC50 [4]: 10 to 100 nM
Compound: CN(c1ncnc2[nH]ccc12)C1CCn2cc(CC#N)nc2C1 (racemic) [WX552, 2-[7-[methyl(7H-pyrrolo[2,3-d]pyrimidine-4-yl)amino]-5,6,7,8-tetrahydroimidazo[1,2-a]pyridine-2-yl]acetonitrile]
oral bioavailability and exposure in mice (in words) [1]: good oral bioavailability and higher exposure | AUC (%) ([2]; 10 mg/kg): 31.7% | arthritis inhibitory activity (in words) [2]: good arthritis inhibitory activity

bioavailability [1]: 87% | AUC(0-inf) [1]: 10.5 µM·h | Cmax [1]: 3.02 µM | half-life [1]: 2.26 h | IC50 [3]: 100 to 1000 nM | IC50 [4]: 10 to 100 nM
Compound: CN(c1ncnc2[nH]ccc12)C1CCn2cc(C#N)nc2C1 (racemic) [WX591, 7-[methyl-[7 hydropyrrolo[2,3-d]pyrimidine-4-yl]amino]-5,6,7,8-tetrahydroimidazo [1,2-a]pyridine-2-nitrile]
oral bioavailability and exposure in mice (in words) [1]: good oral bioavailability and higher exposure | AUC (%) ([2]; 10 mg/kg): 44.7% | arthritis inhibitory activity (in words) [2]: good arthritis inhibitory activity

IC50 [3]: > 1000 nM | IC50 [4]: > 1000 nM
Compound: CN(c1ncnc2[nH]ccc12)C1CCn2cc(CC#N)nc2C1 (single isomer, unassigned) [WX612, (S or R) 2-[7-[methyl(7H-pyrrolo[2,3-d]pyrimidine-4-yl)amino]-5,6,7,8-tetrahydroimidazo[1,2-a]pyridine-2-yl]acetonitrile]

IC50 [3]: 100 to 1000 nM | IC50 [4]: 10 to 100 nM
Compound: CN(c1ncnc2[nH]ccc12)C1CCn2cc(CC#N)nc2C1 (single isomer, unassigned) [WX613, (R or S)2-[7-[methyl(7H-pyrrolo[2,3-d]pyrimidine-4-yl)amino]-5,6,7,8-tetrahydroimidazo [1,2-a]pyridine-2-yl]acetonitrile]

bioavailability [1]: 73.9% | AUC(0-inf) [1]: 10.2 µM·h | Cmax [1]: 3.09 µM | half-life [1]: 1.76 h | IC50 [3]: 10 to 100 nM | IC50 [4]: ≤ 10 nM
Compound: CN(c1ncnc2[nH]ccc12)[C@H]1CCn2cc(C#N)nc2C1 (single isomer, unassigned) [WX614, (S or R) 7-[methyl-[7 hydropyrrolo[2,3-d]pyrimidine-4-yl]amino]-5,6,7,8-tetrahydroimidazo[1,2-a]pyridine-2-nitrile]
AUC (%) ([5]; 3 mg/kg): 42.4% | AUC (%) ([5]; 10 mg/kg): 51.3% | AUC (%) ([5]; 30 mg/kg): 82.5% | therapeutic effect on mouse rheumatoid arthritis (in words) ([5]; clinical score): significant therapeutic effect | oral bioavailability and exposure in mice (in words) [1]: good oral bioavailability and higher exposure | AUC (%) ([2]; 1 mg/kg): 20.2% | AUC (%) ([2]; 3 mg/kg): 50.2% | AUC (%) ([2]; 10 mg/kg): 61.8% | arthritis inhibitory activity (in words) [2]: good arthritis inhibitory activity

IC50 [3]: > 1000 nM | IC50 [4]: > 1000 nM
Compound: CN(c1ncnc2[nH]ccc12)[C@@H]1CCn2cc(C#N)nc2C1 (single isomer, unassigned) [WX615, (R or S) 7-[methyl-[7 hydropyrrolo[2,3-d]pyrimidine-4-yl]amino]-5,6,7,8-tetrahydroimidazo [1,2-a]pyridine-2-nitrile]

IC50 [3]: > 1000 nM | IC50 [4]: 100 to 1000 nM
Compound: CCOC(=O)c1cn2c(n1)CC(N(C)c1ncnc3[nH]ccc13)CC2 (centres unmarked) [WX550, ethyl 7-[methyl(7H-pyrrolo[2,3-d]pyrimidine-4-yl)amino]-5,6,7,8-tetrahydroimidazo[1,2-a]pyridine-2-carboxylate]

IC50 [3]: > 1000 nM | IC50 [4]: 100 to 1000 nM
Compound: CN(c1ncnc2[nH]ccc12)C1CCn2cc(CO)nc2C1 (centres unmarked) [WX551]
